Data published in patent publication US10232023B2, “Methods for treatment of and prophylaxis against inflammatory disorders” (THE UNIVERSITY OF UTAH RESEARCH FOUNDATION, priority 2013, dated 2019).

Legend:
PMA-stimulated PMNs = assay: Nuclear decondensation (nuclear area) assay; format: cell-based, human; settings: CRISPP 1 nM, SCR 1 nM, Sivelestat 200 nM; PMA 20 nM, 2 hours; vs PMA alone
Description: Using techniques modified from Papayannopoulos et al., J Cell Biol, 2010, 191: 677-691, nuclear area assays were used for PMA-stimulated PMNs as a surrogate for NET formation. PMNs were stimulated with PMA (20 nM) for 2 hours and then visualized via live cell imaging with a cell permeable DNA dye. Images from 5 randomly selected high power fields were captured and the nuclear area of all PMNs on each visual field was quantitated using IMAGEJ software. Nuclear areas were compared for PMNs stimulated with PMA with PMNs pre-incubated with CRISPP (1 nM), SCR (1 nM), or the NE inhibitor Sivelestat (200 nM). […] Next, immunocytochemical experiments designed to see whether CRISPP is taken up by human PMNs were performed. The CRISPP-F and SCR-F peptides and FLAG-tag specific primary antibodies were used to assess cellular location. […] CRISPP can inhibit nuclear chromatin decondensation, which is consistent with the selective inhibition of NET formation by CRISPP and nNIF. This process may involve inhibition of NE activity.
PMNs were isolated and resuspended to 2×10^6 cells/mL in M-199 media. […] 5 randomly selected high power visual fields per sample were captured via confocal microscopy and analyzed for nuclear area using the cell-permeable, fluorescent DNA dye SYTO Green. The nuclear pixel areas of >100 individual cells per high power field were determined using IMAGE-J software (NIH).

NET formation = NET formation inhibition (test not described); settings: no test described
LPS-stimulated PMNs = assay: NET formation by LPS-stimulated adult human PMNs (live cell imaging, histone H3 release); format: cell-based; settings: LPS 100 ng/mL; for NET formation by LPS-stimulated PMNs: healthy adult PMNs, peptide/protein pre-incubation 1 hour (1 nM where stated)
[1] = tested on: human PMNs stimulated with phorbol 12-myristate acetate (PMA); settings: background statement; cited from earlier work
[2] = tested on: PMA-stimulated adult PMNs; assay: NET formation by PMA-stimulated adult human PMNs; format: cell-based; settings: pre-incubation 1 nM, 1 hour; PMA 20 nM
[3] = tested on: Outbred Swiss-Webster mice, E. coli peritonitis; assay: Murine E. coli peritonitis: peritoneal fluid and membrane analysis; format: in vivo, mouse
Description: Outbred Swiss-Webster mice were injected intraperitoneally with 4.5×10^7 colony-forming units (cfu) of E. coli±nNIF, CRISPP, or scrambled control peptide (SCR) (10 mg/kg, IP injection) one hour prior to E. coli infection. At the 3 hour time point after infection, 3 mice were sacrificed and the peritoneal fluid and peritoneal tissue were collected and analyzed for leukocyte accumulation, bacteriology, and in vivo NET formation. […] See Fuchs et al., J Cell Biol, 2007, 176: 231-241. The number of E. coli cfu/mL of peritoneal fluid in CRISPP pretreated mice was also determined compared to SCR mice (see FIG. 17C).
Animals were treated with CRISPP (10 mg/kg), nNIF (10 mg/kg), or SCR (10 mg/kg) by i.p. injection 1 hour prior to infection (E. coli, 4.5×10^7 cfu/mouse, i.p. injection) or stimulation (LPS, 25 mg/kg, i.p. injection (SIGMA)). Control mice were injected with saline alone. The mice were sacrificed in a CO2 chamber 3 hours post-infection/stimulation with the peritoneal contents harvested and analyzed. Briefly, the skin of the abdomen was cut open in the midline after thorough disinfection and without injuring the muscle. The peritoneal cavity was lavaged with sterile saline solution ([…]) and analyzed for in vivo NET formation, bacteriology, and leukocyte accumulation. NETs in the peritoneal fluid were qualitatively and quantitatively analyzed using live cell imaging with confocal microscopy and histone release assays. NETs on the inner surface of the peritoneal membrane were assessed quantitatively using live cell imaging followed by standardized grid analysis of 5 randomly selected high power visual fields per tissue sample (IMAGE-J software, NIH). Peritoneal bacterial colony forming units (cfu) counts were quantified by permeabilizing all recovered leukocytes with 0.1% Triton-X 100 for 10 minutes and performing serial dilutions and bacterial cultures on 5% sheep blood agar plates (HARDY DIAGNOSTICS). After a 24-hour incubation, bacterial counts were determined. Total leukocyte counts in the peritoneal lavage were determined in Neubauer chambers using an optical microscope after dilution in Turk's solution (2% acetic acid). Differential leukocyte analysis was performed using a 60× oil immersion objective to assess morphology of cyto-centrifuged cells stained with May-Grunwald-Giemsa dye.

[4] = tested on: PMNs isolated from healthy adult donors; assay: PMN chemotaxis, modified Boyden Chamber assay; format: cell-based, human; settings: 1 nM, one hour pre-incubation; IL-8 2 ng/mL
Description: Chemotaxis by PMNs isolated from healthy adult donors was assessed using a modified Boyden Chamber assay±a one hour pre-incubation […] (1 nM), or SCR (1 nM). Recombinant human IL-8 (2 ng/mL) was used as the chemoattractant. Chemotaxis through a 5 micron filter was determined by counting PMNs in 10 randomly selected high-power fields as previously described in Hill et al., Lancet, 1974, 2: 617-619. In separate experiments, […], or SCR (all at 1 nM) were evaluated for chemoattractant activity using the same system.

[5] = tested on: PMNs isolated from healthy adult donors; assay: PMN phagocytosis of E. coli BIOPARTICLES; format: cell-based, human; settings: 1 nM, 60 minutes pre-incubation, 4 hours
Description: PMNs were isolated from blood of healthy adult donors and resuspended in M-199 at a concentration of 2×10^6 cells/mL. Leukocytes were pre-incubated for 60 minutes under standard conditions with cytochalasin B and […] (1 nM), or SCR (1 nM). Following pre-incubation, PMNs were incubated with 6×10^6 E. coli BIOPARTICLES (E-13231, MOLECULAR PROBES) on a rotator for 4 hours under standard conditions. The PMNs were then washed and resuspended in the starting volume in M-199 before being spun down onto glass coverslips and fixed with 2% paraformaldehyde for 10 minutes and permeabilized with 0.1% Triton-X-100 for 10 minutes. Leukocytes were stained with WGA 555 (INVITROGEN) and TO[…] (MOLECULAR PROBES) and randomly selected high power visual field images were captured using confocal microscopy. IMAGE-J software (NIH) was used to determine the percentage of PMNs that were positive for fluorescently labeled E. coli BIOPARTICLES detected at 488 nm.

[6] = tested on: LPS-stimulated human PMNs; assay: Reactive oxygen species generation, dihydrorhodamine assay; format: cell-based; settings: 1 nM, 1 hour pre-incubation; LPS 100 ng/mL
Description: Human PMNs isolated from healthy adult whole blood were resuspended to a concentration of 2×10^6 cells/mL in M-199 media and pre-incubated±[…] (1 nM) or SCR (1 nM) peptide for 1 hour under standard conditions. The PMNs were then stimulated with LPS (100 ng/mL) for 1 hour, washed, and resuspended with a dihydrorhodamine (7.25 mM; D-632, MOLECULAR PROBES) and catalase (1000 Units/mL; C-40, SIGMA) mixture and incubated at 37° C. for 10 minutes. After incubation, samples were placed at 4° C. and analyzed for ROS-dependent fluorescence using a BECTON-DICKINSON FACSCAN device equipped with CELLQUEST software.

[7] = 10 mg/kg IP pretreatment, vs SCR control

Molecule: CC(C)(C)C(=O)Oc1ccc(S(=O)(=O)Nc2ccccc2C(=O)NCC(=O)O)cc1 [Sivelestat, reference compound]
- Nuclear area of PMA-stimulated PMNs (PMA-stimulated PMNs): significant decrease in nuclear area

Molecule: A1ATm^358: cleavage fragment of full length A1AT (SEQ ID NO:3), an nNIF-related peptide (PMSIPPEVKFNKPFVFLMIEQNTKSPLFMGKVVNPTQK; homo sapiens)
- NET formation (NET formation): inhibit NET formation

Molecule: alpha 1-antitrypsin [A1AT]
- NET formation by LPS-stimulated PMNs (LPS-stimulated PMNs): failed to inhibit NET formation
- NET formation by LPS-stimulated PMNs, recombinant AAT in nNIF-depleted cord blood plasma (LPS-stimulated PMNs; rAAT (1 nM) added to nNIF-depleted cord blood plasma, listed as recombinant full length A1AT): did not inhibit NET formation
- NET formation in PMA-stimulated human PMNs [1]: does not inhibit NET formation

Molecule: neonatal NET-Inhibitory Factor (KAVLTIDEKGTEAAGAMFLEAIPMSIPPEVKFNKPFVFLMIEQNTKSPLFMGKVVNPTQK; listed as Homo sapiens) [nNIF]
- NET formation by LPS-stimulated PMNs (LPS-stimulated PMNs): significantly inhibited NET formation
- NET formation by PMA-stimulated PMNs [2]: significantly inhibited NET formation
- NET formation by histone H3 release assay of the peritoneal fluid [3, 7]: significant quantitative decrease
- NET formation in the peritoneal fluid (live cell imaging) [3, 7]: qualitative decrease
- Peritoneal membrane-associated NET formation ([3]; freshly resected peritoneal membrane, live cell imaging, standardized grid): qualitative and quantitative decrease
- PMN chemotaxis [4]: did not significantly inhibit
- PMN phagocytosis [5]: did not significantly inhibit
- Reactive oxygen species generation [6]: did not significantly inhibit

B1: recombinant serpin B1: serine protease inhibitor expressed as a cytoplasmic protein by human PMNs (protein, UniProt P30740 1-379, looked up)
Leukocyte elastase inhibitor: MEQLSSANTRFALDLFLALSENNPAGNIFISPFSISSAMAMVFLGTRGNTAAQLSKTFHFNTVEEVHSRFQSLNADINKRGASYILKLANRLYGEKTYNFLPEFLVSTQKTYGADLASVDFQHASEDARKTINQWVKGQTEGKIPELLASGMVDNMTKLVLVNAIYFKGNWKDKFMKEATTNAPFRLNKKDRKTVKMMYQKKKFAYGYIEDLKCRVLELPYQGEELSMVILLPDDIEDESTGLKKIEEQLTLEKLHEWTKPENLDFIEVNVSLPRFKLEESYTLNSDLARLGVQDLFNSSKADLSGMSGARDIFISKIVHKSFVEVNEEGTEAAAATAGIATFCMLMPEENFTADHPFLFFIRHNSSGSILFLGRFSSP
- NET formation in PMA-stimulated human PMNs [1]: inhibits NET formation
